Data as given in patent US8940314B2, “Repellent to insects harmful to a plant and method for repelling the same” (Riken, priority 2004, dated 2015).

Experiments:
Assay type in all cases: in vivo
Thrips palmi Karny = assay: Repelling effect on Thrips palmi Karny, insect damage on treated eggplant true leaves; settings: ingredient 80 parts + auxiliary B 20 parts, 200 mg/100 ml water, 10 days at 22 to 30° C., total degree of insect damage vs distilled water area
Protocol: The same procedures in Example 5 were repeated to prepare the repellent except that auxiliary B (diglycerin monooleate : (polyoxyethylene phenyl ether+dodecylbenzenesulufonate): soybean oil (1:1:1)) was used in place of auxiliary A.
(§1) The repellent was diluted with water to 200 mg/100 ml which was then applied to true leaves of eggplant (variety: Senryo No. 2 at 3.5 leaf stage). As control samples, auxiliary B alone and distilled water were used. After drying, the plant was maintained at 22 to 30° C. for 10 days in an isolated room in which adult Thrips palmi Karny were grown and the degree of insect damage (the number of insect damage spots) was observed and were totaled based on the criteria: 0 for no damage, 1 for very slight damage, 3 for slight damage, 5 for remarkable damage and 10 for serious damage. A repelling ratio was determined according to the following formula. Repelling ratio (%)=100×[1−(the total degree of insect damage in the repellent applied area)/(the total degree of insect damage in the distilled water applied area)]

western flower thrips = assay: Repelling effect on western flower thrips, insect damage on treated eggplant true leaves; settings: ingredient 80 parts + auxiliary A 20 parts, 200 mg/100 ml water, 10 days at 22 to 30° C., total degree of insect damage vs distilled water area
Protocol: as §1, with “Main ingredients (80 parts by mass) and auxiliary A (polyoxyethylene (5) monododecyl ether) (20 parts by mass) listed in Table 5 were mixed to prepare a sample of the repellent of the present invention. The” for “The”, “A” for “B”, “western flower thrips” for “Thrips palmi Karny”, “formula.” for “formula. Repelling ratio (%)=100×[1−(the total degree of insect damage in the repellent applied area)/(the total degree of insect damage in the distilled water applied area)]”

cotton aphid = assay: Repelling effect on cotton aphid, treated cucumber true leaves; settings: ingredient 80 parts + auxiliary A 20 parts, 200 mg/100 ml water, 7 days at 22 to 30° C., number of adult insects vs distilled water area
Protocol: Main ingredients (80 parts by mass) and auxiliary A (polyoxyethylene (5) monododecyl ether) (20 parts by mass) listed in Table 3 were mixed to prepare a sample of the repellent of the present invention.
(§2) The repellent was diluted with water to 200 mg/100 ml which was then applied to true leaves of cucumber (variety: Sagami Hanjiro at 0.7 leaf stage). As control samples, auxiliary A alone and distilled water were used. After drying, the plant was maintained at 22 to 30° C. for 7 days in an isolated room in which cotton aphid were grown and the number of adult insects that came flying was counted with time. A repelling ratio was determined according to the following formula. Repelling ratio (%)=100×[1−(the number of adult insects in the repellent applied area)/(the number of adult insects in the distilled water applied area)]

silverleaf whitefly = assay: Repelling effect on silverleaf whitefly, treated cucumber seed leaves; settings: ingredient 80 parts + auxiliary B 20 parts, 200 mg/100 ml water, 3 days at 22 to 30° C., number of adult insects vs distilled water area
Protocol: (§3) (polyoxyethylene phenyl ether+dodecylbenzenesulufonate): soybean oil (1:1:1) (20 parts by mass) listed in Table 2 were mixed to prepare a sample of the repellent of the present invention. The repellent was diluted with water to 200 mg/100 ml which was then applied to seed leaves of cucumber (variety: Sagami Hanjiro). As control samples, auxiliary B alone and distilled water were used. After drying, the plant was maintained at 22 to 30° C. for 3 days in an isolated room in which adult silverleaf whiteflies were grown and the number of adult insects that came flying was counted with time. A repelling ratio was determined according to the following formula.

green peach aphid = assay: Repelling effect on green peach aphid, treated eggplant seed leaves; settings: ingredient 80 parts + auxiliary B 20 parts, 200 mg/100 ml water, 7 days at 22 to 30° C., number of adult insects vs distilled water area
Protocol: as §3, with “oil (1:1:1))” for “oil (1:1:1)”, “Table 4” for “Table 2”, “of eggplant” for “of cucumber”, “(variety: Senryo No. 2).” for “(variety: Sagami Hanjiro).”, “for 7” for “for 3”, “which green peach aphid” for “which adult silverleaf whiteflies”

greenhouse whitefly = assay: Repelling effect on greenhouse whitefly, treated common bean seed leaves; settings: ingredient 80 parts + auxiliary A 20 parts, 200 mg/100 ml water, 3 days at 22 to 30° C., number of adult insects vs distilled water area
Protocol: Main ingredients (80 parts by mass) and auxiliary A (polyoxyethylene (5) monododecyl ether) (20 parts by mass) listed in Table 1 were mixed to prepare a sample of the repellent of the present invention.
as §2, with “seed” for “true”, “common bean” for “cucumber”, “Taisho Kintoki).” for “Sagami Hanjiro at 0.7 leaf stage).”, “3” for “7”, “adult greenhouse whiteflies” for “cotton aphid”

Compound	Repelling ratio (%) (Thrips palmi Karny)	Repelling ratio (%) (western flower thrips)	Repelling ratio (%) (cotton aphid)	Repelling ratio (%) (silverleaf whitefly)	Repelling ratio (%) (green peach aphid)	Repelling ratio (%) (greenhouse whitefly)
sucrose fatty acid ester (laurate) [5-25]	68	55	–	–	–	–
polyoxyethylene (40) sorbitan [1-15]	69	75	75	85	82	70
CC(C)CCCCCCCCCCCCCCC(=O)O [1-20, isostearic acid]	–	–	–	65	–	72
glycerin monostearate [5-2]	62	58	–	–	–	–
glycerin monopalmitate [5-3]	71	68	–	–	–	–
CCCCCCCC/C=C\CCCCCCCC(=O)O [1-19, oleic acid]	69	76	70	68	70	84
polyoxyethylene (5) monododecyl ether [1-23, reference compound]	–	8	3	–	–	5
sorbitan oleate [1-5]	–	–	93	75	85	80
CCCCCCCCCC(=O)O [1-18, n-capric acid]	–	–	76	86	68	90
propylene glycol monooleate [1-10]	81	80	82	73	76	82
CCCCCCCCCCCC(=O)OCC(COC(=O)CCCCCCCCCCC)OC(=O)CCCCCCCCCCC [5-22, glycerin trilaurate]	90	82	–	–	–	–
glycerin monolaurate [5-1]	65	62	–	–	–	–
decaglycerin laurate [1-9]	–	–	90	70	83	80
decaglycerin oleate [1-8]	–	–	95	75	78	76
glycerin diacetomonolaurate [1-6]	–	–	82	94	77	96
OC[C@@H](O)[C@H]1OC[C@H](O)[C@H]1O [1-21, sorbitan]	–	–	68	67	62	74
poly (2-3) glycerin oleate [5-6]	68	58	–	–	–	–
glycerin monoacetomonostearate [5-8]	55	68	–	–	–	–
diglycerin monostearate [5-5]	55	60	–	–	–	–
glycerin monooleate [1-2]	–	–	85	70	81	82
polyoxyethylene (60) sorbitan [1-16]	–	–	78	77	80	73
sorbitan palmitate [5-11]	73	72	–	–	–	–
sucrose fatty acid ester (oleate) [5-24]	62	58	–	–	–	–
glycerin monocaprylate [1-1]	–	–	88	73	76	82
OC[C@@H](O)[C@@H](O)[C@H](O)[C@@H](O)CO [5-23, sorbitol]	55	61	–	–	–	–
polyoxyethylene (20) sorbitan [5-13]	54	68	–	–	–	–
succinic acid saturated acid monoglyceride [5-9]	71	70	–	–	–	–
citric acid unsaturated fatty acid monoglyceride [1-7]	–	–	92	71	81	73
sorbitan laurate [1-4]	63	53	96	92	82	92
decaglycerin stearate [5-7]	70	77	–	–	–	–
